Consider two molecules from patent US11110105B2, “Compounds, composition and uses thereof for treating cancer” (INSTITUT GUSTAVE ROUSSY, priority 2017, dated 2021).

“Also recorded” adds a separate entry of the source.

The subject of data set [1] is MCA205 mouse sarcoma cell line. Briefly: MTT assay on MCA205 cell line. The format is cell-based. Conditions: MCA205 WT cells, 15 μM or 35 μM. How it is done: (§1) RNA was extracted and qRT-PCR was performed with primers amplifying the unspliced (intron) and the spliced (exon) globin-SL8-intron RNA. Data are given as mean ±SEM of the ratio of 2^−ΔΔCt intron and 2^−ΔΔCt exon of at least three independent experiments. […] Data are express as mean ±SEM of the percentage of viable cells compared to the control condition of at least three independent experiments. *P<0.05, **P<0.01, ***P<0.001 (unpaired student t test).
(§2) MCA205 mouse sarcoma cell line is cultured at 37° C. under 5% CO2 in RPMI 1640 medium (Life Technologies) in the presence of 1% glutamine, 1% sodium pyruvate, 1% non-essential amino-acids, 1% penicillin/streptomycin and 10% FBS (Life Technologies) under standard conditions. B16F10 mouse melanoma cell line, MRC5 human fibroblast cell line and A375 human melanoma cell line are cultured at 37° C. under 5% CO2 in DMEM medium (Life Technologies) containing 1% glutamine, 1% penicillin/streptomycin and 10% FCS under standard conditions. A549 human lung carcinoma cell line is cultured at 37° C. under 5% CO2 in DMEM/F12+Glutamax I in the presence of 1% Hepes, 1% sodium pyruvate and 10% FBS under standard conditions. Stable MCA205-Globin-SL8-intron cell line are cultured under the same condition as MCA205 cell line with additional 2 mg/ml G418 (geneticin from Life Technologies) for selection. Stable B16F10-Globin-SL8-intron cell line are cultured under the same condition as B16F10 cell line with additional 2 mg/ml G418 (geneticin from Life Technologies) for selection. The SL8/Kb-specific (B3Z) T-cell reporter hybridoma are cultured at 37° C. under 5% CO2 in RPMI 1640 medium (Life Technologies) in the presence of 1% glutamine, 0.1% β-galactosidase, 1% penicillin/streptomycin and 10% FCS under standard conditions.
(§3) MTT assay on MCA205 and B16F10 cell lines treated with 6.25 μM, 15 μM or 25 μM of isoginkgetin. Dare are given as the mean of the percentage of cell viability ±SEM from at least three independent experiments.
(Tetrazolium assays rely on reduction of a dye to a coloured formazan, in cell work by metabolically active cells.)

The subject of data set [2] is B16F10 mouse melanoma cell line. Put plainly: MTT assay on B16F10 cell line. The format is cell-based. The settings on record: B16F10 WT cells, 15 μM or 35 μM. The procedure:
as §1, §2, §3

In data set [3] the test system is splicing of the Globin-SL8-intron gene product in MCA205 cells. Put plainly: qRT-PCR of unspliced/spliced globin-SL8-intron RNA, MCA205. The class given is cell-based, mouse. The settings on record: 15 μM isoginkgetin, 35 μM IP2 or 35 μM M2P2, 48 hours. How it is done: as §1
(§4) In addition, it has been shown that cancer cells can acquire deficiencies in the splicing machinery that benefit their growth, for example by preventing the expression of tumor suppressor genes.
(Quantitative PCR measures a nucleic acid by following its amplification.)

The subject of data set [4] is splicing of the Globin-SL8-intron gene product in B16F10 cells. Briefly: qRT-PCR of unspliced/spliced globin-SL8-intron RNA, B16F10. The class given is cell-based, mouse. The settings on record: 15 μM isoginkgetin, 35 μM IP2 or 35 μM M2P2, 48 hours. How it is done: as §1, §4
A short description of data set [5]: MTT assay on MCA205 cell line. The format is cell-based, mouse. Conditions: mouse, MCA205 sarcoma cells, MTT, read-out: % cell viability (±SEM). The procedure: as §1, §2, §3
Data set [6] is described as follows: MTT assay on B16F10 cell line. The class given is cell-based, mouse. Conditions: mouse, B16F10 melanoma cells, MTT, read-out: % cell viability (±SEM). The procedure:
as §1, §2, §3

Data set [7] can be described thus: MTT assay on A375 cell line. The format is cell-based. Conditions: human, A375 melanoma cells, read-out: % cell viability (±SEM). The procedure:
MCA205 mouse sarcoma cell line is cultured at 37° C. under 5% CO2 in RPMI 1640 medium (Life Technologies) in the presence of 1% glutamine, 1% sodium pyruvate, 1% non-essential amino-acids, 1% penicillin/streptomycin and 10% FBS (Life Technologies) under standard conditions. B16F10 mouse melanoma cell line, MRC5 human fibroblast cell line and A375 human melanoma cell line are cultured at 37° C. under 5% CO2 in DMEM medium (Life Technologies) containing 1% glutamine, 1% penicillin/streptomycin and 10% FCS under standard conditions. A549 human lung carcinoma cell line is cultured at 37° C. under 5% CO2 in DMEM/F12+Glutamax I in the presence of 1% Hepes, 1% sodium pyruvate and 10% FBS under standard conditions. Stable MCA205-Globin-SL8-intron cell line are cultured under the same condition as MCA205 cell line with additional 2 mg/ml G418 (geneticin from Life Technologies) for selection. Stable B16F10-Globin-SL8-intron cell line are cultured under the same condition as B16F10 cell line with additional 2 mg/ml G418 (geneticin from Life Technologies) for selection. The SL8/Kb-specific (B3Z) T-cell reporter hybridoma are cultured at 37° C. under 5% CO2 in RPMI 1640 medium (Life Technologies) in the presence of 1% glutamine, 0.1% β-galactosidase, 1% penicillin/streptomycin and 10% FCS under standard conditions. […]

The subject of another data set is MCA205 WT tumors. Briefly: Tumor challenge, MCA205 WT in immunodeficient Nu/Nu nude mice. The class given is in vivo, mouse. Conditions: 18 mg/kg intraperitoneally, days 5, 10 and 15. How it is done:
(A) Experimental settings. Growth of (B) sarcoma MCA205 or (C) melanoma B16F10 cells that both stably express the globin-SL8-intron construct or (D) MCA205 Wild Type (WT) or (E) B16F10 WT cells that were subcutaneously inoculated on the flank of immunocompetent C57BL/6 mice injected intraperitoneally with 12 mg/kg or 18 mg/kg of isoginkgetin at days 5, 10 and 15 after inoculation. Tumor size was assessed every 3 to 4 days until reaching the established ethical endpoints. Each line represents the tumor size in area (mm^2) of 6 mice in each group. Size in area (mm^2) of (F) MCA205 globin-SL8-intron, (G) B16F10 globin-SL8-intron, (H) MCA205 WT or (I) B16F10 WT tumors subcutaneously inoculated on the flank of immunodeficient Nu/Nu Nude mice injected intraperitoneally with 18 mg/kg of isoginkgetin at days 5, 10 and 15 after inoculation. Data are presented at the day before the endpoints are reached.
Each line represents the tumor size in area (mm^2) of at least 6 mice in each group. The C right panel represents the tumor size at day 27. […]
Inventors then assessed the requirement of the immune response for isoginkgetin to reduce tumor growth Immunodeficient Nu/Nu nude mice were inoculated subcutaneously with either MCA205 or B16F10 cells that stably express the Globin-intron-SL8 or WT, and were treated with the same settings as previously described (FIG. 9A). […]

Data set [8] can be described thus: MTT viability, mouse cell lines (text summary of table 2). The settings on record: MCA205 sarcoma and B16F10 melanoma cells, MCA205 and B16F10, 6.25-25 μM, read-out: cell viability at efficient doses. The format is cell-based. How it is done: In parallel, the same experiment was performed on the mouse melanoma B16F10 and sarcoma MCA205 cell lines that were transiently expressing the Globin-SL8-intron construct. […] Efficient doses lead to cell viability over 50% in these cell lines (table 2).
as §3

Turning to `COc1ccc(-c2cc(=O)c3c(OC)cc(OP(=O)([O-])[O-])c(-c4cc(-c5cc(=O)c6c(OC)cc(OP(=O)([O-])[O-])cc6o5)ccc4OC)c3o2)cc1.[Na+].[Na+].[Na+].[Na+]` [IM2P2], the “toxicity (MTT, percentage of viable cells compared to control)” value in data set [1] and in data set [2] was “no toxicity” each time. Moreover, the “splicing of Globin-SL8-intron RNA (ratio unspliced/spliced, qRT-PCR)” value is reported as “has a strong impact on splicing; also recorded: strongly inhibits the splicing” in data set [3] and “does not impact splicing; also recorded: no impact” in [4].
Consider `COc1ccc(-c2cc(=O)c3c(O)cc(O)c(-c4cc(-c5cc(=O)c6c(O)cc(O)cc6o5)ccc4OC)c3o2)cc1` [Isoginkgetin, isoginkgetin], for which the viability (in general, the share of living cells, or the viability signal relative to a control) at 6.25 µM in data set [5] (MCA205, 6.25 μM) was 84.8%; in data set [6] (B16F10, 6.25 μM) it was 86.5%; in data set [7] (A375, 6.25 μM), 100%. For the same molecule, the viability at 15 µM in data set [5] (MCA205, 15 μM) stood at 56.3%; in [6] (B16F10, 15 μM), 58.6%. Also, the viability at 25 µM worked out at 51.7% in [5] (MCA205, 25 μM) and 51.2% in data set [6] (B16F10, 25 μM). Further, the viability at 2.5 µM in data set [7] (A375, 2.5 μM) is 100%. Also, in the data set on MCA205 WT tumors, the tumor growth entry is given as “No effect”. In addition, the viability in data set [8] is > 50%.
